Measured values from US20250340591A1, “COMPOSITION FOR PREVENTING OR TREATING INFLAMMATORY BOWEL DISEASE CONTAINING NOVEL COMPOUND” (ANYGEN CO., LTD., priority 2021, published 2025).

Tests used:
Assay type in all cases: cell-based
AMPK = experiment: phosphorylation of AMPK in HT-29 cells, Western blot
From the text: It is known that tight junctions are mediated by a signaling mechanism due to phosphorylation of AMPK protein. Therefore, in order to confirm whether AMPK is involved in the increase in tight junctions by HKFY-34, the expression of p-AMPK in the cells was confirmed using HT-29 cells (FIGS. 79 and 80).
In addition, when treated with HKFY-34 after pretreatment with an AMPK inhibitor (STO-609), it was confirmed that the expression level of p-AMPK, which was increased due to HKFY-34 treatment, was decreased (FIG. 80).

ghrelin receptor (GHSR) = target: T1, ghrelin receptor (GHSR) (Homo sapiens, UniProt Q92847); experiment: luciferase assay system, ghrelin receptor family selectivity; settings: compared with intrinsic ligand, FIG. 74
T1 construct: expressed in transfected cells
Method: (§1) In addition, through the activity test of the HKFY derivatives for similar receptors to GPR39, ghrelin receptor family (ghrelin receptor (GHSR), motilin receptor (MTLR), neurotensin receptor (NTSR1 & NTSR2), neuromedin U receptor (NMU1 & NMU2), TRH (thyrotropin releasing hormone) receptor (TRHR)), the selectivity and specificity for the GPR39 receptor were confirmed.
(§2) Specifically, the degree of activity between the intrinsic ligand and HKFY-34 for each receptor was analyzed using a luciferase assay system (FIG. 74).

[1] = target: T2, neurotensin receptor (NTSR1) (Homo sapiens, UniProt P30989); experiment: as above; settings: compared with intrinsic ligand, FIG. 74
T2 construct: expressed in transfected cells
Method: as §1, §2

motilin receptor (MTLR) = target: T3, motilin receptor (MTLR) (Homo sapiens, UniProt O43193); experiment: as above; settings: compared with intrinsic ligand, FIG. 74
T3 construct: expressed in transfected cells
Method: as §1, §2

[2] = target: T4, neuromedin U receptor (NMU2) (Homo sapiens, UniProt Q9GZQ4); experiment: as above; settings: compared with intrinsic ligand, FIG. 74
T4 construct: expressed in transfected cells
Method: as §1, §2

[3] = target: T5, TRH (thyrotropin releasing hormone) receptor (TRHR) (Homo sapiens, UniProt P34981); experiment: as above; settings: compared with intrinsic ligand, FIG. 74
T5 construct: expressed in transfected cells
T5 sequence (P34981 1-398): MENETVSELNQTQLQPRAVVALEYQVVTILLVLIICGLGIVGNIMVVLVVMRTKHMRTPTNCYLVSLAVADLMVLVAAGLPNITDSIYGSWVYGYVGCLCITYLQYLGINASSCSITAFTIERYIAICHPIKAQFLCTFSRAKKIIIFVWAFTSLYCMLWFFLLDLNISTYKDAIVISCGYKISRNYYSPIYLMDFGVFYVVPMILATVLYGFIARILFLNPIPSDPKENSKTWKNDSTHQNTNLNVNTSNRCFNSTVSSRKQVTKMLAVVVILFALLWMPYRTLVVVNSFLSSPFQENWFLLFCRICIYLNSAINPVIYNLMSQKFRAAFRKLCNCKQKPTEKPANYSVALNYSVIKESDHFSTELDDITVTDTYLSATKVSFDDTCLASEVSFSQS
Method: as §1, §2

[4] = target: T6, neurotensin receptor (NTSR2) (Homo sapiens, UniProt O95665); experiment: as above; settings: compared with intrinsic ligand, FIG. 74
T6 construct: expressed in transfected cells
Method: as §1, §2

HT-29 cells [5] = experiment: calcium ion concentration in HT-29 cells (Fluo-8); settings: 10 uM, vs untreated group (vehicle), FIG. 76
Method: It is known from studies using GPR39 deficient mice that calcium signaling is involved in the growth of intestinal tissue cells by GPR39 (Phil. Trans. R. Soc. B. 2016, 371:20150420). Therefore, it was confirmed whether calcium signaling is involved in the cell growth promoted by HKFY-34.
Specifically, HT-29 cells were cultured in a 96-well black culture plate and then treated with HKFY-34, and the calcium ion concentration in the cells was measured using a Fluo-8 Direct™ calcium assay kit (Thermo Fisher Scientific). As a result, the calcium ion concentration in HT-29 cells was increased by HKFY-34 compared to the untreated group (vehicle) (FIG. 76).

HT-29 cells [6] = experiment: tight junction factor (ZO-1, occludin) expression in HT-29 cells, qPCR and Western blot; settings: HT-29, different concentrations, vs vehicle
Method: It is known that GPR39 is involved in the protection of the gastrointestinal tract (Phil. Trans. R. Soc. B., 2016, 371:20150420). Therefore, in order to confirm the effect of HKFY-34 on the gastrointestinal tract protective function by GPR39, the promoting activity of HKFY-34 on tight junction was evaluated using HT-29 cells, which are important for intestinal tissue formation.
Specifically, the HT-29 cells were treated with HKFY-34 at different concentrations, and then the expression levels of mRNA (FIG. 77) and protein (FIG. 78) of ZO-1 and occludin, which are important factors of tight junction in intestinal barrier function, were confirmed through quantitative RT-PCR (qPCR) and Western blot.

GPR39 = target: T7, GPR39 (Homo sapiens, UniProt O43194); experiment: calcium influx assay system (aequorin, CV-1 cells); parameters: host or cells: CV-1 fibroblast cell line, lipofectamine transfection; settings: CV-1 transfected with hGPR39, Gαq
T7 sequence (O43194 1-453): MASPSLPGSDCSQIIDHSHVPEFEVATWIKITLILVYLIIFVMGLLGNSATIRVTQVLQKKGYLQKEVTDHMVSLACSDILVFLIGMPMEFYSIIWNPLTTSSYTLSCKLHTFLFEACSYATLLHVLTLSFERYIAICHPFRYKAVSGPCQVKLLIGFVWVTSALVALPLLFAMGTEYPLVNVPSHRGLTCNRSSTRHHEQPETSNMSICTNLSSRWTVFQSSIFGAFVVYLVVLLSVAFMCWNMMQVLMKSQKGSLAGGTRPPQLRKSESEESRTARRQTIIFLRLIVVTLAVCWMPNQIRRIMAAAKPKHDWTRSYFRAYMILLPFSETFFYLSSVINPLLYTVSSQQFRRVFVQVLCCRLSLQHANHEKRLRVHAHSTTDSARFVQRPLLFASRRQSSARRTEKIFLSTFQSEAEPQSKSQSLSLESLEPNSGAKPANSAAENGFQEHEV
From the text: After culturing, the degree of binding of calcium activated by activated GPR39 to aequrin was quantified using a luminometer (bottom in FIG. 73).

T6 sequence (O95665 whole entry, species assumed): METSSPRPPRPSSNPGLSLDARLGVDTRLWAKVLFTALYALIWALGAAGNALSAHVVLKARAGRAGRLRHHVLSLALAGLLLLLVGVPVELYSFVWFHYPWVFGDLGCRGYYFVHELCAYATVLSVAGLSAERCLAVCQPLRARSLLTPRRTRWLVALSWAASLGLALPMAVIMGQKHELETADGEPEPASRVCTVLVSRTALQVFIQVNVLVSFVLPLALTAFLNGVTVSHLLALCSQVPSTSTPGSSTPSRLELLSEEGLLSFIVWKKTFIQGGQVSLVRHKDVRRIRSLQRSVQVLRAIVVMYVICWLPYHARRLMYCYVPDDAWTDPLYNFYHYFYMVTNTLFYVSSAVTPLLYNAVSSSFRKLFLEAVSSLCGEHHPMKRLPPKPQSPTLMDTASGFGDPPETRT
T4 sequence (Q9GZQ4 whole entry, species assumed): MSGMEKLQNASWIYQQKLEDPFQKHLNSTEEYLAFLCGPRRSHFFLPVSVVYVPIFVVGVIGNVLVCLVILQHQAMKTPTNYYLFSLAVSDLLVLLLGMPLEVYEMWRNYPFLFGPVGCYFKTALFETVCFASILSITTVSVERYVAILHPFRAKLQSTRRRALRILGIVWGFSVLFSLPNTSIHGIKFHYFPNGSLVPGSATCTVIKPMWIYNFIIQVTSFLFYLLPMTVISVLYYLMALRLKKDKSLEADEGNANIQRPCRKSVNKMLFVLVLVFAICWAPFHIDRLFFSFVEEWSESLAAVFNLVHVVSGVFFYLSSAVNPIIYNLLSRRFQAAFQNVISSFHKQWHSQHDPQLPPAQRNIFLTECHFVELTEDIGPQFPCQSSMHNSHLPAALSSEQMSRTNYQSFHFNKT
T3 sequence (O43193 whole entry, species assumed): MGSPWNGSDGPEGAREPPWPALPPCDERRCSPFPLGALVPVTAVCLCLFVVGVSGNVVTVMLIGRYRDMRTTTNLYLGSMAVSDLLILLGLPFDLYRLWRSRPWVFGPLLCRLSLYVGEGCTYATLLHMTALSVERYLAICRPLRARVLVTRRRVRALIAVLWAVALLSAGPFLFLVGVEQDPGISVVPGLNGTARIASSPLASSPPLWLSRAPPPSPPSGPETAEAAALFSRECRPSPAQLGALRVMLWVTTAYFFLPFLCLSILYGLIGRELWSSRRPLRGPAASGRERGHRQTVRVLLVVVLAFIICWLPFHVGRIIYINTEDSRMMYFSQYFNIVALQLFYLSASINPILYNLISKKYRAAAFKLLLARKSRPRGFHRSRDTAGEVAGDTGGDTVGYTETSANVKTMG
T1 sequence (Q92847 whole entry, species assumed): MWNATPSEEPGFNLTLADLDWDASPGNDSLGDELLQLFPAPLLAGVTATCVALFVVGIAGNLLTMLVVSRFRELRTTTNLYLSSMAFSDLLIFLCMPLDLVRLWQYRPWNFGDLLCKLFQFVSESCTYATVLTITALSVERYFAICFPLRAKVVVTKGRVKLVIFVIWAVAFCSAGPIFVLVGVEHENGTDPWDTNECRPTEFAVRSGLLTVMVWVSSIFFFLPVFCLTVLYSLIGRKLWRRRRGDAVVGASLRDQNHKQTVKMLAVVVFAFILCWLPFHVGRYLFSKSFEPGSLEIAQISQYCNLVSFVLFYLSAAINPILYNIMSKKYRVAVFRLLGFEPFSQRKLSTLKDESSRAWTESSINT
T2 sequence (P30989 whole entry, species assumed): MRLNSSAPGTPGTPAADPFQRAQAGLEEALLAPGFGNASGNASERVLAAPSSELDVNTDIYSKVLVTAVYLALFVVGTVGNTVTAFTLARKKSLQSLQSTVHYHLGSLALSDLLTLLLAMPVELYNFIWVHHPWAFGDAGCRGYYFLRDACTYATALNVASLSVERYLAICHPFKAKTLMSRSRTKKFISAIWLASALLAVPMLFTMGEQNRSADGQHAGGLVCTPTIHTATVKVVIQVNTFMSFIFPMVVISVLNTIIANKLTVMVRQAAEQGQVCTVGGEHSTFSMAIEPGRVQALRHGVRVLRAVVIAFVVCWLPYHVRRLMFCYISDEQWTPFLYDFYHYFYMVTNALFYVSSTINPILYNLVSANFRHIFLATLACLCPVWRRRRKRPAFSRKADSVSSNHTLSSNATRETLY

CCCCCCCC(=O)NCCCC[C@H](NC(=O)[C@@H](N)Cc1cn(C(c2ccccc2)c2ccccc2)cn1)C(=O)N[C@H](Cc1ccc(C)cc1)C(=O)N[C@@H](Cc1ccc(O)cc1)C(=O)O [HKFY-34, ((R)-2-((S)-2-((S)-2-amino-3-(1-benzhydryl-1H-imidazol-4-yl)propanamido)-6-octanamidohexanamido)-3-(p-tolyl)propanoyl)-L-tyrosine]
expression of p-AMPK protein (AMPK; HT-29, different concentrations, vs vehicle, FIG. 79): increased by HKFY-34 in a dose-dependent manner | expression level of p-AMPK after pretreatment with AMPK inhibitor (AMPK; HT-29, pretreatment with STO-609 1 μM, vs HKFY-34 treatment, FIG. 80): decreased | activity for GHSR (ghrelin receptor (GHSR)): very low | activity for NTSR1 [1]: very low | activity for MTLR (motilin receptor (MTLR)): very low | activity for NMU2 [2]: very low | activity for TRHR [3]: very low | activity for NTSR2 [4]: very low | calcium ion concentration in HT-29 cells (HT-29 cells [5]): increased | protein expression level of ZO-1 (HT-29 cells [6]; Western blot, FIG. 78): significantly increased by HKFY-34 in a dose-dependent manner | protein expression level of occludin (HT-29 cells [6]; Western blot, FIG. 78): significantly increased by HKFY-34 in a dose-dependent manner | mRNA expression level of ZO-1 (HT-29 cells [6]; qPCR, FIG. 77): significantly increased by HKFY-34 in a dose-dependent manner | mRNA expression level of occludin (HT-29 cells [6]; qPCR, FIG. 77): significantly increased by HKFY-34 in a dose-dependent manner | Ca2+ influx assay ECmax (−fold induction over basal) (GPR39): 2.4 ± 4.59 fold induction over basal
